# Measurements: US20150366190A1, “Sustained Release Methods to Defeat Plant Pests” (BioGuard Technologies, Inc., priority 2014, published 2015)
# Several values for one entry are separate records, joined by “and”; a condition that tells them apart may be missing. Equal entries are not always repeated.
# Assays:
# [1] = Simulated rainfall / sequential aqueous leaching of dried films; format: physicochemical; design: depletion of supplied active by aqueous extraction / release rate, % of supplied active: concentration or dose not given beside the values; settings: for release rate of active: FIG. 10; for release rate, % of supplied active: FIG. 8; for recoverable active released to water: FIG. 9
# Description: (§1) Two experimental protocols were used to evaluate aqueous release and the extent of active retention. The first protocol was a rapid solvent extraction screen that involved dipping the coated specimens sequentially into vials containing 35 ml water for 1, 1, 5, and 10 minutes, then 50% MeOH for 10 minutes, and 100% MeOH for 24 hours. This protocol provided a rapid comparison of water soluble and entrained, but releasable, active fractions. The second protocol was to assess release rates based on simulated precipitation/rainfall conditions. This protocol involved maintaining test samples in successive 35 ml volumes of water for 24-hour periods for up to […], providing a cumulative daily release rate from dried films. This water extraction period was followed by a single extraction in 100% MeOH for 24 and 48 hrs to determine residual/entrained or solvent removable active. The aqueous leach procedure is considered extreme in simulating intermittent daily rainfalls of varying intensity, but does provide the rates of release for comparative purposes.
# The solvent extraction method used above represents a rapid screen for the comparative entrainment behavior of actives and surfactants in the formulated latex system. To address the problem of foliar retention and longevity of actives using a single field application is more a function of rainfall frequency and intensity. To better understand this process under laboratory conditions, we employed a continuous/sequential aqueous (pH 6.0-6.8) leaching process, with periodic sampling and replacement of the solution over periods up to 288 hrs. This is a rather harsh leaching process, but is more representative than the water/MeOH solvent extraction procedure used for screening.
# In the simulated rainfall study, we compared the aqueous extraction patterns for cyproconazole at 0.06% with 0.24% EtOH (1×) added to latex (with no surfactant), cyproconazole with […] and 0.05% PP912T added to latex, and cyproconazole with 1% EtOH (4×) and 0.05% PP912T added to latex. This combination was designed to determine formulation variables including surfactant and increased EtOH.
# Aqueous extraction of formulations containing chlorothalonil and spiroxamine with latex without surfactant and with PP912T, AU-398 and AU-391A were compared to evaluate long term extraction profiles and residual active after 144 hrs of extraction, sampled at 24 hr intervals.
# [2] = Rapid solvent extraction screen of coated specimens (water, 50% MeOH, 100% MeOH); format: physicochemical
# Description: as §1
# The influence of formulation factors on cyproconazole release and entrainment from aqueous solutions containing 0.2% EtOH without latex (FIG. 1A) was compared to the subsequent EtOH studies with latex. […] This would be expected to represent the relative solubility and release of active, and likely dependent on water solubility of the active.
# To determine the influence of latex on cyproconazole release, cyproconazole was first dissolved in ethanol and added to 2% latex solutions to assess the effects on cyproconazole binding with latex using solvent extractions (FIG. 1A).
# The first step was to determine the solvent extractability of the non-latex formulations. This was based on readily soluble (water, 17 minutes), easily soluble (50% MeOH, 10 minutes), and relatively non-water soluble (100% MeOH, 24 hr) fractions of the formulations (FIG. 3).
# A total of nine commercial surfactants (Table 1) were compared for relative entrainment of cyproconazole in latex, based on the percent of active contained in the 100% MeOH fraction (FIG. 5).
# The same solvent extraction protocol was used to evaluate 2 other fungicides (chlorothalonil and spiroxamine) with differing chemistries (water solubility and solvent solubility). These were evaluated using the same solvent extraction protocol. The three surfactants that worked best with cyproconazole were used for these actives.
# [3] = EtOH printed for cyproconazole only; cited from earlier work
# [4] = aqueous 0.2% EtOH, without latex, FIG. 1A
smiles,measurement,setting,value
N#Cc1c(Cl)c(Cl)c(Cl)c(C#N)c1Cl [chlorothalonil],release rate of active,"[1]; latex alone, at 6 days",63%
same,release rate of active,"[1]; latex with surfactants, 6 days",80-88%
same,active remained after extraction,"[1]; without surfactant, after 6 days of extraction, FIG. 11",16%
same,100% MeOH retention compared to no surfactant,"[2]; latex, with PP912T and AU-398, FIG. 6",increase
same,solvent solubility,[3],10000 µg/mL
CC(C1CC1)C(O)(Cn1cncn1)c1ccc(Cl)cc1 (centres unmarked) [cyproconazole],"release rate, % of supplied active","[1]; latex with AU-391A, at 6 days",60%
same,"release rate, % of supplied active","[1]; latex with AU-398, at 6 days",50%
same,"release rate, % of supplied active","[1]; latex with PP912T, at 6 days",73%
same,depletion of supplied active by aqueous extraction,"[1]; latex with surfactant PP912T, at 288 days, FIG. 7",90%
same,time to attain 90% loss to water,"[1]; latex/EtOH, FIG. 1B",12 days
same,time at which aqueous loss of supplied active was 90%,"[1]; without latex, FIG. 1B",2.5 days
same,50% MeOH fraction of active,[2]; [4],68%
same,100% MeOH fraction of active,[2]; [4],13.5% and 13%
same,water extractable fraction of active,[2]; [4],18.5%
same,100% MeOH fraction of active,"[2]; dissolved in ethanol, added to 2% latex solution, FIG. 1A",32%
CCCN(CC)CC1COC2(CCC(C(C)(C)C)CC2)O1 (centres unmarked) [spiroxamine],recoverable active released to water,"[1]; latex alone, 144 hr extraction",85%
same,recoverable active released to water,"[1]; latex plus AU-391A, 144 hr extraction",85%
same,recoverable active released to water,"[1]; latex plus AU-398, 144 hr extraction",50%
same,recoverable active released to water,"[1]; latex plus PP912T, 144 hr extraction",50%
same,effect on release compared to latex alone,[1]; latex with AU-391A,no effect
same,release rate compared to latex alone,[1]; latex with PP912T and AU-398,substantial reduction
same,active released,"[1]; with latex, without surfactant, 6 days extraction, FIG. 13",94%
same,release to water compared to the no-surfactant control,"[2]; latex, with PP912T, AU-398 and AU-391A, FIG. 6",increased release
